Molecules are shown by their SMILES. Like-named read-outs stand apart in the source and are kept apart here.

Assay [1] deals with p75^NTR receptors (PC12 cells). Description: Basic screening assay: binding of 125I-NGF to PC12 cells. Conditions: test compound 50 μM, 0.5 nM 125I-NGF, PC12 cells, 2 h at 4° C., specific binding as percent of control. Summed up: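 PC12 cells (4×10^6) incubated 2 h at 4° C with 0.5 nM 125I-NGF and test compound at 50 μM, rotating. Bound tracer pelleted through 10% glycerol and gamma-counted; specific binding expressed as percent of control after NSB subtraction.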

Assay [2] deals with T1, p75^NTR receptors (PC12 cells) (Rattus norvegicus, UniProt P07174).
T1 construct: endogenous in cells; host or cells: PC12 cells
T1 sequence (P07174 30-425): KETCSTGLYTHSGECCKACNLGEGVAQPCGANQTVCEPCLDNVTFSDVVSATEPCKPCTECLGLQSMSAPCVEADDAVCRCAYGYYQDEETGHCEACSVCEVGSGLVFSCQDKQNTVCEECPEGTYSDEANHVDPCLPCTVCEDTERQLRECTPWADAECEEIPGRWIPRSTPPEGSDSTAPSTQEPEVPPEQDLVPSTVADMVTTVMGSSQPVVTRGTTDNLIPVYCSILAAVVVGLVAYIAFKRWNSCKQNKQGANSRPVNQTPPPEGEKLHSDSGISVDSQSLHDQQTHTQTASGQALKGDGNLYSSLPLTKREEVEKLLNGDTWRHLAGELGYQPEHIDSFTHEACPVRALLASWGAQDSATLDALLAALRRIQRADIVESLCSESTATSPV
T1 sequence (P23560 129-247 partner): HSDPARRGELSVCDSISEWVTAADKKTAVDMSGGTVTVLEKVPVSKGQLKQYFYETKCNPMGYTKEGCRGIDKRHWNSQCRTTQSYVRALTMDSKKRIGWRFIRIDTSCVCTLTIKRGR
The experiment in a line: Basic screening assay: binding of 125I-BDNF to PC12 cells. Particulars: read-out: BDNF Activity % Maximal Binding. The procedure, abridged:
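4×10^6 PC12 cells incubated 2 h at 4° C, rotating, with 0.5 nM ^125I-BDNF (final) and compound at 50 μM, in duplicate or more. Bound ligand separated through 10% glycerol by centrifugation and counted by gamma counter; specific binding is Bmax minus NSB; inhibitors followed up for EC50.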

Setting [3] is: Table 2, test compound 50 μM, 0.5 nM 125I-BDNF, PC12 cells, 2 h at 4° C., specific binding as percent of control.
Setting [4] is: Table 4, test compound 50 μM, 0.5 nM 125I-BDNF, PC12 cells, 2 h at 4° C., specific binding as percent of control.

Turning to `CCOC(=O)c1ccc(-c2ccc(/C=C3/SC(=S)N(CC(=O)O)C3=O)o2)cc1` [Compound 68, 4-[5-(3-Carboxymethyl-4-oxo-2-thioxo-thiazolidin-5-ylidenemethyl)furan-2-yl]benzoic acid ethyl ester], in assay [1] (Table 2), the “NGF Activity % Maximal Binding” value is reported as “XX (30 < XX < 40)”. Also, in assay [2] (setting [3]), the activity at 50 µM is 0 to 10%.
In the case of `COC(=O)c1cccc(-c2ccc(/C=C3/SC(=S)N(CC(=O)O)C3=O)o2)c1` [Compound 69, 3-[5-(3-Carboxymethyl-4-oxo-2-thioxo-thiazolidin-5-ylidenemethyl)furan-2-yl]benzoic acid methyl ester], the “NGF Activity % Maximal Binding” value in assay [1] (Table 2) is listed as “XX (30 < XX < 40)”. Besides, the activity at 50 µM in assay [2] (setting [3]) was 0 to 10%.
As to `O=C1NC(=S)N(c2ccc(F)cc2)C(=O)/C1=C\c1ccc(-c2cccc([N+](=O)[O-])c2)o1` [Compound 70, 1-(4-Fluorophenyl)-5-[5-(3-nitrophenyl)furan-2-ylmethylene]-2-thioxo-dihydro-pyrimidine-4,6-dione], the “NGF Activity % Maximal Binding” value in assay [1] (Table 2) is on record as “X (40 < X < 50)”. Moreover, the activity at 50 µM in assay [2] lay within 0 to 10%.
For `Cc1c(-c2ccc(C=C3C(=O)NC(=S)NC3=O)o2)ccc([N+](=O)[O-])c1C` [Compound 71, 5-[5-(2,3-Dimethyl-4-nitrophenyl)furan-2-ylmethylene]-2-thioxo-dihydro-pyrimidine-4,6-dione], in that order: “X (40 < X < 50)” and 0 to 10%.
For `O=C(O)c1ccc(Cl)c(-c2ccc(/C=C3/NC(=O)N(Cc4ccccc4F)C3=O)o2)c1` [Compound 72, 4-Chloro-3-{5-[1-(2-fluorobenzyl)-2,5-dioxo-imidazolidin-4-ylidenemethyl]furan-2-yl}benzoic acid], the “NGF Activity % Maximal Binding” value in assay [1] (Table 2) was “X (40 < X < 50)”. In assay [2] (setting [3]), the activity at 50 µM fell in the range of 0 to 10%.
For `CCN1C(=O)S/C(=C/c2ccc(-c3ccc(C(=O)O)cc3)o2)C1=O` [Compound 73, 4-[5-(3-Ethyl-2,4-dioxo-thiazolidin-5-ylidenemethyl)furan-2-yl]benzoic acid], in that order: “X (40 < X < 50)” and 0 to 10%.
For `NS(=O)(=O)c1cccc(-c2ccc(/C=C3/SC(=S)N(CC(=O)O)C3=O)o2)c1` [Compound 74, {4-oxo-5-[5-(3-sulfamoylphenyl)furan-2-ylmethylene]-2-thioxo-thiazolidin-3-yl}-acetic acid], in that order: “X (40 < X < 50)” and 0 to 10%.
Take `O=C1NC(=O)C(=Cc2ccc(-c3ccc(Cl)c(C(=O)O)c3)o2)C(=O)N1` [Compound 75, 2-Chloro-5-[5-(2,4,6-trioxo-tetrahydro-pyrimidin-5-ylidenemethyl)furan-2-yl]benzoic acid]: the “NGF Activity % Maximal Binding” value in assay [1] (Table 2) is given as “X (40 < X < 50)”. Moreover, the activity at 50 µM in assay [2] lay within 0 to 10%.
On to `Cc1cc(C(=O)O)ccc1-c1ccc(/C=C2\SC(=O)N(C)C2=O)o1` [Compound 76, 3-Methyl-4-[5-(3-methyl-2,4-dioxo-thiazolidin-5-ylidenemethyl)furan-2-yl]benzoic acid], for which, in assay [1] (Table 2), the “NGF Activity % Maximal Binding” value is “X (40 < X < 50)”. In assay [2] (setting [3]), the activity at 50 µM lay in the range of 0 to 10%.
For `CN1C(=O)NC(=O)/C(=C/c2ccc(-c3cccc(C(=O)O)c3)o2)C1=O` [Compound 77, 3-[5-(1-Methyl-2,4,6-trioxo-tetrahydro-pyrimidin-5-ylidenemethyl)furan-2-yl]benzoic acid], the “NGF Activity % Maximal Binding” value in assay [1] (Table 2) was “XXX (20 < XXX < 30)”. Besides, the activity at 50 µM in assay [2] lay in the range of 10 to 20%.
For `CN1C(=O)NC(=O)C(=Cc2ccc(-c3cccc([N+](=O)[O-])c3)o2)C1=O` [Compound 78, 1-Methyl-5-[5-(3-nitrophenyl)furan-2-ylmethylene]-pyrimidine-2,4,6-trione], in that order: “X (40 < X < 50)” and 10 to 20%.
Regarding `COC(=O)CN1C(=O)S/C(=C/c2ccc(-c3ccc(C(=O)O)cc3)o2)C1=O` [Compound 79, 4-[5-(3-Methoxycarbonylmethyl-2,4-dioxo-thiazolidin-5-ylidenemethyl)furan-2-yl]benzoic acid], in assay [1] (Table 2), the “NGF Activity % Maximal Binding” value is “X (40 < X < 50)”. In assay [2] (setting [3]), the activity at 50 µM was 10 to 20%.
On the same counts, the results for `CN1C(=O)S/C(=C/c2ccc(-c3ccc(C(=O)O)c(Cl)c3)o2)C1=O` [Compound 80, 2-Chloro-4-[5-(3-methyl-2,4-dioxo-thiazolidin-5-ylidenemethyl)furan-2-yl]benzoic acid] are “X (40 < X < 50)” and 10 to 20%.
Take `Cc1c(-c2ccc(C=C3C(=O)NC(=O)NC3=O)o2)ccc([N+](=O)[O-])c1C` [Compound 81, 5-[5-(2,3-Dimethyl-4-nitrophenyl)furan-2-ylmethylene]-pyrimidine-2,4,6-trione]: the “NGF Activity % Maximal Binding” value in assay [1] (Table 2) was “XX (30 < XX < 40)”. Besides, the activity at 50 µM in assay [2] is 20 to 30%.
Regarding `Cc1cccc(N2NC(=O)C(=Cc3ccc(-c4ccc(C(=O)O)cc4)o3)C2=O)c1` [Compound 82, 4-[5-(3,5-Dioxo-1-m-tolyl-pyrazolidin-4-ylidenemethyl)furan-2-yl]benzoic acid], the “NGF Activity % Maximal Binding” value in assay [1] (Table 2) is “X (40 < X < 50)”. Further, the activity at 50 µM in assay [2] (setting [3]) is 20 to 30%.
For `O=C(O)CCCN1C(=O)C(=Cc2ccc(-c3cccc([N+](=O)[O-])c3)o2)SC1=S` [Compound 84, 4-{5-[5-(3-Nitrophenyl)furan-2-ylmethylene]-4-oxo-2-thioxo-thiazolidin-3-yl}-butyric acid], in assay [1] (Table 2), the “NGF Activity % Maximal Binding” value is on record as “XXXXX (0 < XXXXX < 10)”. Also, the activity at 50 µM in assay [2] (setting [3]) fell in the range of 40 to 50%.
On to `O=C1NC(=S)N/C1=C/c1ccc(-c2ccc(Cl)c(C(=O)O)c2)o1` [Compound 85, 2-Chloro-5-[5-(5-oxo-2-thioxo-imidazolidin-4-ylidenemethyl)furan-2-yl]benzoic_acid], for which the “NGF Activity % Maximal Binding” value in assay [1] (Table 3) is on record as “X (40 < X < 50)”. In assay [2] (Table 3, test compound 50 μM, 0.5 nM 125I-BDNF, PC12 cells, 2 h at 4° C., specific binding as percent of control), the activity at 50 µM is more than 50%.
On to `O=C1NC(=O)C(=Cc2ccc(-c3cccc([N+](=O)[O-])c3)o2)S1` [Compound 87, 5-[5-(3-Nitrophenyl)furan-2-ylmethylene]-thiazolidine-2,4-dione], for which the “NGF Activity % Maximal Binding” value in assay [1] (Table 4) is reported as “* (50 < *)”. Moreover, the activity at 50 µM in assay [2] (setting [4]) is more than 50%.
For `Cc1ccc([N+](=O)[O-])cc1-c1ccc(/C=C2/SC(=O)NC2=O)o1` [Compound 88, 5-[5-(2-Methyl-5-nitrophenyl)furan-2-ylmethylene]-thiazolidine-2,4-dione], in that order: “* (50 < *)” and more than 50%.
On the same counts, the results for `O=C1NC(=S)N/C1=C\c1ccc(-c2cccc([N+](=O)[O-])c2)o1` [Compound 89, 5-[5-(3-Nitrophenyl)furan-2-ylmethylene]-2-thioxo-imidazolidin-4-one] are “* (50 < *)” and more than 50%.
As for `COc1cc([N+](=O)[O-])ccc1-c1ccc(/C=C2\NC(=S)NC2=O)o1` [Compound 90, 5-[5-(2-Methoxy-4-nitrophenyl)furan-2-ylmethylene]-2-thioxo-imidazolidin-4-one], in assay [1] (Table 4), the “NGF Activity % Maximal Binding” value was “* (50 < *)”. The activity at 50 µM in assay [2] (setting [4]) is more than 50%.
On the same counts, the results for `COC(=O)c1cc(-c2ccc(/C=C3/NC(=S)NC3=O)o2)ccc1Cl` [Compound 91, 2-Chloro-5-[5-(5-oxo-2-thioxo-imidazolidin-4-ylidenemethyl)furan-2-yl]benzoic acid methyl ester] are “* (50 < *)” and more than 50%.

Source of the values: patent US20050282840A1, “Methods of modulating neurotrophin-mediated activity” (PainCeptor Pharma Corporation, priority 2004, published 2005).
